Experiment [1] has as its target T1, LecA (PA-IL) (Pseudomonas aeruginosa, UniProt Q05097).
T1 construct: soluble calcium-dependent homotetramer, one site per monomer
Nature of the experiment: isothermal titration calorimetry. The format is binding. The text has this:
isothermal titration calorimetry on LecA (PA-IL)

For experiment [2], the target named is T2, LecB (PA-IIL) (Pseudomonas aeruginosa, UniProt Q9HYN5).
T2 construct: soluble calcium-dependent homotetramer, one site per monomer
Description: isothermal titration calorimetry. The format is binding.

Experiment [3] deals with T2, LecB (PA-IIL). Description: yeast agglutination inhibition, microscopy. It counts as biochemical. Conditions: LecB 625 μg/ml, yeast cells; complete inhibition. From the text:
yeast agglutination inhibition, microscopy on LecB (PA-IIL)

Experiment [4] concerns the target T1, LecA (PA-IL). Description: hemagglutination inhibition, microscopy. The format is biochemical. The note with it: LecA 125 μg/ml, group O red blood cells; complete inhibition. From the text:
hemagglutination inhibition, microscopy on LecA (PA-IL)

The values that follow come from paper PMC11753388, “Bispecific Thio‐Linked Disaccharides as Inhibitors of Pseudomonas Aeruginosa Lectins LecA (PA‐IL) and LecB (PA‐IIL): Dual‐Targeting Strategy” (Chemistry (Weinheim an Der Bergstrasse, Germany), 2024).

Like-named read-outs stand apart in the source and are kept apart here.

T2 sequence (Q9HYN5 entry or part of it): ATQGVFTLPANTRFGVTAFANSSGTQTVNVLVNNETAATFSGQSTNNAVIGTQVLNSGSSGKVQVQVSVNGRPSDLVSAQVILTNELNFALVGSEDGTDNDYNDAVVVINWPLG
T1 sequence (Q05097 2-122): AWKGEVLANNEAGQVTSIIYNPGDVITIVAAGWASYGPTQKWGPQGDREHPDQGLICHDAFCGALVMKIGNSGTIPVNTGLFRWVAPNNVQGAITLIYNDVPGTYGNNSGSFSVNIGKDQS

Turning to `OC[C@H]1OC(O)[C@H](O)[C@@H](O)[C@H]1O` (stereo partly drawn) [D-Galactose], in experiment [1] (read-out: LecA / KD, 300 μM lectin, 2 mM ligand, non-sigmoid curve, n apparent), the Kd was 175 µM.

As for `C[C@@H]1O[C@@H](S[C@@H]2O[C@H](CO)[C@H](O)[C@H](O)[C@H]2O)[C@@H](O)[C@H](O)[C@@H]1O` [compound 14, Thio‐L‐Fuc‐α(1,1)β‐D‐Gal], the Kd was found to be 0.35 µM in experiment [2] and 115 µM in experiment [1].

Turning to `C[C@@H]1O[C@@H](S[C@@H]2O[C@@H](C)[C@@H](O)[C@@H](O)[C@@H]2O)[C@@H](O)[C@H](O)[C@@H]1O` [compound 25, Thio‐L‐Fuc‐α(1,1)α‐L‐Fuc], the “LecB / MIC” value in experiment [3] was determined as 6.10 µM.

As to `C[C@@H]1O[C@@H](S[C@H]2O[C@H](CO)[C@@H](O)[C@H](O)[C@H]2O)[C@@H](O)[C@H](O)[C@@H]1O` [compound 26, Thio‐L‐Fuc‐α(1,1)α‐D‐Glc], in experiment [3], the “LecB / MIC” value was determined as 6.10 µM.

For `C[C@@H]1O[C@@H](S[C@H]2O[C@H](CO)[C@H](O)[C@H](O)[C@H]2O)[C@@H](O)[C@H](O)[C@@H]1O` [compound 27, Thio‐L‐Fuc‐α(1,1)α‐D‐Gal], the Kd was 0.19 µM in experiment [2] and 55.6 µM in experiment [1].

`C[C@H]1O[C@H](S[C@H]2O[C@H](CO)[C@H](O)[C@H](O)[C@H]2O)[C@H](O)[C@@H](O)[C@H]1O` [compound 28, Thio‐D‐Fuc‐α(1,1)α‐D‐Gal]: in experiment [4], the “LecA / MIC” value was 390 µM.

Regarding `OC[C@H]1O[C@H](S[C@H]2O[C@H](CO)[C@H](O)[C@H](O)[C@H]2O)[C@H](O)[C@@H](O)[C@H]1O` [compound 29, Thio‐D‐Gal‐α(1,1)α‐D‐Gal], in experiment [4], the “LecA / MIC” value amounted to 97.5 µM.

On to `OC[C@H]1O[C@H](S[C@H]2O[C@H](CO)[C@@H](O)[C@H](O)[C@H]2O)[C@H](O)[C@@H](O)[C@H]1O` [compound 30, Thio‐D‐Gal‐α(1,1)α‐D‐Glc], for which the “LecA / MIC” value in experiment [4] came out at 390 µM.
